In ChEMBL document CHEMBL1128559, “Inhibition of the oncogene product p185erbB-2 in vitro and in vivo by geldanamycin and dihydrogeldanamycin derivatives” (J Med Chem, 1995):

What follows are molecules tested on SK-BR-3 (assay: Inhibition of oncogene product p185 erbB-2 from human breast cancer cells(SK-BR-3 cells).).

Row | IC50 | SMILES
1 | > 2.9 µM | COC1=C2C[C@@H](C)C[C@H](OC)[C@H](O)[C@@H](C)/C=C(\C)[C@H](OC(N)=O)[C@@H](OC)/C=C\C=C(/C)C(=O)NC(=C(/C=N/N3CCN(C)CC3)C1=O)C2=O
2 | 0.051 µM | C=CCNC1=C2C[C@@H](C)C[C@H](OC)[C@H](O)[C@@H](C)/C=C(\C)[C@H](OC(N)=O)[C@@H](OC)CC/C=C(\C)C(=O)NC(=CC1=O)C2=O
3 | 0.05 µM | CO[C@H]1/C=C\C=C(/C)C(=O)NC2=CC(=O)C(N3CC(O)C3)=C(C[C@@H](C)C[C@H](OC)[C@H](O)[C@@H](C)/C=C(\C)[C@@H]1OC(N)=O)C2=O
4 | 0.79 µM | CO[C@H]1/C=C\C=C(/C)C(=O)NC2=CC(=O)C(N3CCCC3C(=O)O)=C(C[C@@H](C)C[C@H](OC)[C@H](O)[C@@H](C)/C=C(\C)[C@@H]1OC(N)=O)C2=O (some centres not stated)
5 | 0.71 µM | COC(CNC1=C2C[C@@H](C)C[C@H](OC)[C@H](O)[C@@H](C)/C=C(\C)[C@H](OC(N)=O)[C@@H](OC)/C=C\C=C(/C)C(=O)NC(=CC1=O)C2=O)OC
6 | 0.32 µM | CO[C@H]1/C=C\C=C(/C)C(=O)NC2=CC(=O)C(NCCc3ccco3)=C(C[C@@H](C)C[C@H](OC)[C@H](O)[C@@H](C)/C=C(\C)[C@@H]1OC(N)=O)C2=O
7 | > 3.13 µM | COC1=C2C[C@@H](C)C[C@H](OC)[C@H](O)[C@@H](C)/C=C(\C)[C@H](OC(N)=O)[C@@H](OC)/C=C\C=C(/C)C(=O)NC(=C(Br)C1=O)C2=O
8 | > 3.26 µM | CO[C@H]1/C=C\C=C(/C)C(=O)NC2=CC(=O)C(NC3CCCC3)=C(C[C@@H](C)C[C@H](OC)[C@H](O)[C@@H](C)/C=C(\C)[C@@H]1OC(N)=O)C2=O
9 | 0.52 µM | COC1c2cc(O)cc(c2O)NC(=O)/C(C)=C/C=C\[C@H](OC)[C@@H](OC(N)=O)/C(C)=C/[C@H](C)[C@@H](OC)[C@@H](OC)C[C@@H]1C (some centres not stated)
10 | 0.15 µM | CO[C@H]1/C=C\C=C(/C)C(=O)NC2=CC3=NC(/N=C(\N)N4CCC(C)CC4)=NC3=C(C[C@@H](C)C[C@H](OC)[C@H](O)[C@@H](C)/C=C(\C)[C@@H]1OC(N)=O)C2=O
11 | 0.08 µM | CO[C@H]1/C=C\C=C(/C)C(=O)NC2=CC(=O)C(NCCCN)=C(C[C@@H](C)C[C@H](OC)[C@H](O)[C@@H](C)/C=C(\C)[C@@H]1OC(N)=O)C2=O
12 | 0.47 µM | CO[C@H]1C[C@H](C)CC2=C(NC(C)C)C(=O)C=C(NC(=O)/C(C)=C/CC[C@H](OC)[C@@H](OC(N)=O)/C(C)=C/[C@H](C)[C@H]1O)C2=O
13 | > 4.1 µM | CO[C@H]1/C=C\C=C(/C)C(=O)NC2=C(NCCCN(C)C)C(=O)C(NCCCN(C)C)=C(C[C@@H](C)C[C@H](OC)[C@H](O)[C@@H](C)/C=C(\C)[C@@H]1OC(N)=O)C2=O
14 | 0.98 µM | CO[C@H]1C[C@H](C)CC2=C3N=C(/N=C(\N)N4CCC4)N=C3C=C(NC(=O)/C(C)=C/CC[C@H](OC)[C@@H](OC(N)=O)/C(C)=C/[C@H](C)[C@H]1O)C2=O
15 | 0.026 µM | C#CCNC1=C2C[C@@H](C)C[C@H](OC)[C@H](O)[C@@H](C)/C=C(\C)[C@H](OC(N)=O)[C@@H](OC)/C=C\C=C(/C)C(=O)NC(=CC1=O)C2=O
16 | 0.17 µM | CO[C@H]1/C=C\C=C(/C)C(=O)NC2=CC(=O)C(NCCS)=C(C[C@@H](C)C[C@H](OC)[C@H](O)[C@@H](C)/C=C(\C)[C@@H]1OC(N)=O)C2=O
17 | > 3.2 µM | CO[C@H]1/C=C\C=C(/C)C(=O)Nc2cc3nc4ccccc4nc3c(c2O)C[C@@H](C)C[C@H](OC)[C@H](O)[C@@H](C)/C=C(\C)[C@@H]1OC(N)=O
18 | 0.26 µM | CO[C@H]1/C=C\C=C(/C)C(=O)NC2=CC(=O)C(NC[C@@H](C)O)=C(C[C@@H](C)C[C@H](OC)[C@H](O)[C@@H](C)/C=C(\C)[C@@H]1OC(N)=O)C2=O
19 | 1.1 µM | COC1c2cc(O)cc(c2O)NC(=O)/C(C)=C/C=C\[C@H](OC)[C@@H](OC(N)=O)/C(C)=C/[C@H](C)[C@@H](O)[C@@H](OC)C[C@@H]1C (some centres not stated)
20 | 0.066 µM | CO[C@H]1C[C@H](C)CC2=C(N3CC(N)C3)C(=O)C=C(NC(=O)/C(C)=C/CC[C@H](OC)[C@@H](OC(N)=O)/C(C)=C/[C@H](C)[C@H]1O)C2=O
21 | 0.92 µM | CO[C@H]1/C=C\C=C(/C)C(=O)NC2=CC(=O)C(NCCCn3ccnc3)=C(C[C@@H](C)C[C@H](OC)[C@H](O)[C@@H](C)/C=C(\C)[C@@H]1OC(N)=O)C2=O
22 | 0.043 µM | CO[C@H]1/C=C\C=C(/C)C(=O)NC2=CC(=O)C(NC3CC3)=C(C[C@@H](C)C[C@H](OC)[C@H](O)[C@@H](C)/C=C(\C)[C@@H]1OC(N)=O)C2=O
23 | 0.2 µM | CO[C@H]1/C=C\C=C(/C)C(=O)NC2=CC(=O)C(NC(C)(C)C)=C(C[C@@H](C)C[C@H](OC)[C@H](O)[C@@H](C)/C=C(\C)[C@@H]1OC(N)=O)C2=O
24 | 0.066 µM | COCCNC1=C2C[C@@H](C)C[C@H](OC)[C@H](O)[C@@H](C)/C=C(\C)[C@H](OC(N)=O)[C@@H](OC)/C=C\C=C(/C)C(=O)NC(=CC1=O)C2=O

Row | IC50 | SMILES
25 | > 3.1 µM | COC1=C2C[C@@H](C)C[C@H](OC)[C@H](O)[C@@H](C)/C=C(\C)[C@H](OC(N)=O)[C@@H](OC)/C=C\C=C(/C)C3=NC(=C(C1=O)C(NC(C)(C)C)O3)C2=O (some centres not stated)
26 | 0.11 µM | CO[C@H]1/C=C\C=C(/C)C(=O)NC2=CC(=O)C(NCCCI)=C(C[C@@H](C)C[C@H](OC)[C@H](O)[C@@H](C)/C=C(\C)[C@@H]1OC(N)=O)C2=O
27 | 0.089 µM | CNC1=C2C[C@@H](C)C[C@H](OC)[C@H](O)[C@@H](C)/C=C(\C)[C@H](OC(N)=O)[C@@H](OC)/C=C\C=C(/C)C(=O)NC(=CC1=O)C2=O
28 | 0.098 µM | CO[C@H]1/C=C\C=C(/C)C(=O)NC2=CC(=O)C(NCCSC)=C(C[C@@H](C)C[C@H](OC)[C@H](O)[C@@H](C)/C=C(\C)[C@@H]1OC(N)=O)C2=O
29 | 1.5 µM | COC1=C2C[C@@H](C)C[C@H](OC)[C@H](O)[C@@H](C)/C=C(\C)[C@H](OC(N)=O)[C@@H](OC)/C=C\C=C(/C)C(=O)NC(=C(N3C=CC=CC=C3)C1=O)C2=O
30 | 0.1 µM | CO[C@H]1/C=C\C=C(/C)C(=O)NC2=CC(=O)C(NCCO)=C(C[C@@H](C)C[C@H](OC)[C@H](O)[C@@H](C)/C=C(\C)[C@@H]1OC(N)=O)C2=O
31 | 0.18 µM | CO[C@H]1/C=C\C=C(/C)C(=O)NC2=CC(=O)C(N[C@@H](C)CO)=C(C[C@@H](C)C[C@H](OC)[C@H](O)[C@@H](C)/C=C(\C)[C@@H]1OC(N)=O)C2=O
32 | 1.27 µM | CO[C@H]1/C=C\C=C(/C)C(=O)NC2=CC(=O)C(NCCNC(C)=O)=C(C[C@@H](C)C[C@H](OC)[C@H](O)[C@@H](C)/C=C(\C)[C@@H]1OC(N)=O)C2=O
33 | 0.42 µM | CO[C@H]1/C=C\C=C(/C)C(=O)Nc2cc3nc4ccccc4oc-3c(c2=O)C[C@@H](C)C[C@H](OC)[C@H](O)[C@@H](C)/C=C(\C)[C@@H]1OC(N)=O
34 | > 2.7 µM | CO[C@H]1/C=C\C=C(/C)C(=O)NC2=CC(=O)C(NCCS(=O)(=O)O)=C(C[C@@H](C)C[C@H](OC)[C@H](O)[C@@H](C)/C=C(\C)[C@@H]1OC(N)=O)C2=O
35 | > 3.25 µM | COC1=C2C[C@@H](C)C[C@H](OC)[C@H](O)[C@@H](C)/C=C(\C)[C@H](OC(N)=O)[C@@H](OC)/C=C\C=C(/C)C(=O)NC(=C(NC3CC3)C1=O)C2=O
36 | 0.22 µM | CO[C@H]1/C=C\C=C(/C)C(=O)NC2=CC(=O)C(Nc3nccs3)=C(C[C@@H](C)C[C@H](OC)[C@H](O)[C@@H](C)/C=C(\C)[C@@H]1OC(N)=O)C2=O
37 | 0.13 µM | CO[C@H]1/C=C\C=C(/C)C(=O)NC2=CC(=O)C(NCCCO)=C(C[C@@H](C)C[C@H](OC)[C@H](O)[C@@H](C)/C=C(\C)[C@@H]1OC(N)=O)C2=O
38 | 0.33 µM | CO[C@H]1/C=C\C=C(/C)C(=O)NC2=CC(=O)C(N[C@H](C)CO)=C(C[C@@H](C)C[C@H](OC)[C@H](O)[C@@H](C)/C=C(\C)[C@@H]1OC(N)=O)C2=O
39 | 0.97 µM | CO[C@H]1/C=C\C=C(/C)C(=O)NC2=CC(=O)C(NCC(O)CO)=C(C[C@@H](C)C[C@H](OC)[C@H](O)[C@@H](C)/C=C(\C)[C@@H]1OC(N)=O)C2=O (some centres not stated)
40 | 1.99 µM | CO[C@H]1/C=C\C=C(/C)C(=O)NC2=CC(=O)C(NCC(N)=O)=C(C[C@@H](C)C[C@H](OC)[C@H](O)[C@@H](C)/C=C(\C)[C@@H]1OC(N)=O)C2=O
41 | 1.3 µM | CO[C@H]1/C=C\C=C(/C)C(=O)NC2=CC(=O)C(N3CC(CO)C3)=C(C[C@@H](C)C[C@H](OC)[C@H](O)[C@@H](C)/C=C(\C)[C@@H]1OC(N)=O)C2=O
42 | 0.14 µM | CO[C@H]1/C=C\C=C(/C)C(=O)NC2=CC(=O)C(NCCCN(C)C)=C(C[C@@H](C)C[C@H](OC)[C@H](O)[C@@H](C)/C=C(\C)[C@@H]1OC(N)=O)C2=O
43 | 0.14 µM | CO[C@H]1C[C@H](C)CC2=C(NCCSC)C(=O)C=C(NC(=O)/C(C)=C/CC[C@H](OC)[C@@H](OC(N)=O)/C(C)=C/[C@H](C)[C@H]1O)C2=O
44 | > 3.2 µM | CO[C@H]1C[C@H](C)CC2=C(NCCC(=O)O)C(=O)C=C(NC(=O)/C(C)=C/CC[C@H](OC)[C@@H](OC(N)=O)/C(C)=C/[C@H](C)[C@H]1O)C2=O
45 | 1.3 µM | CO[C@H]1C[C@H](C)CC2=C(N3CC(CO)C3)C(=O)C=C(NC(=O)/C(C)=C/CC[C@H](OC)[C@@H](OC(N)=O)/C(C)=C/[C@H](C)[C@H]1O)C2=O
46 | 0.17 µM | CO[C@H]1/C=C\C=C(/C)C(=O)NC2=CC(=O)C(N=C(N(C)C)N(C)C)=C(C[C@@H](C)C[C@H](OC)[C@H](O)[C@@H](C)/C=C(\C)[C@@H]1OC(N)=O)C2=O
47 | 0.26 µM | CO[C@H]1/C=C\C=C(/C)C(=O)NC2=CC3=NCCCNC3=C(C[C@@H](C)C[C@H](OC)[C@H](O)[C@@H](C)/C=C(\C)[C@@H]1OC(N)=O)C2=O
48 | 0.1 µM | COc1c(O)cc2c(O)c1C[C@@H](C)C[C@H](OC)[C@H](O)[C@@H](C)/C=C(\C)[C@H](OC(N)=O)[C@@H](OC)/C=C\C=C(/C)C(=O)N2

Row | SMILES | IC50
49 | CO[C@H]1/C=C\C=C(/C)C(=O)NC2=CC(=O)C(NCc3ccccc3)=C(C[C@@H](C)C[C@H](OC)[C@H](O)[C@@H](C)/C=C(\C)[C@@H]1OC(N)=O)C2=O | 0.79 µM
50 | COC1=C2C[C@@H](C)C[C@H](OC)[C@H](O)[C@@H](C)/C=C(\C)[C@H](OC(N)=O)[C@@H](OC)CC/C=C(\C)C(=O)NC(=CC1=O)C2=O | 0.23 µM
51 | CO[C@H]1/C=C\C=C(/C)C(=O)NC2=CC(=O)C(NCCC(=O)O)=C(C[C@@H](C)C[C@H](OC)[C@H](O)[C@@H](C)/C=C(\C)[C@@H]1OC(N)=O)C2=O | 0.19 µM
52 | CO[C@H]1/C=C\C=C(/C)C(=O)NC2=CC(=O)C(NC3CN4CCC3CC4)=C(C[C@@H](C)C[C@H](OC)[C@H](O)[C@@H](C)/C=C(\C)[C@@H]1OC(N)=O)C2=O (some centres not stated) | 1.37 µM
